# Test results: patent US9370507B2, “Pyridonyl guanidine F1F0-ATPase inhibitors and therapeutic uses thereof” (Lycera Corporation, priority 2010, dated 2016)
# Assays:
# Ramos cells = assay: Cytotoxicity in Ramos cells; type: cell-based; conditions: Homo sapiens, read-out: Ramos Cell EC50
# Protocol: (§1) The compounds listed in Table 4 were tested for activity against F1F0-ATPase by measuring the ability of the compounds to inhibit ATP synthesis. In addition, the compounds were assessed for cytotoxicity in Ramos cells Inhibition of F1F0-ATPase activity in synthesizing ATP and cytotoxicity in Ramos cells were measured according to the procedures described in K. M. Johnson et al. Chemistry & Biology 2005, 12, 485-496.
# F1F0-ATPase = target: T1, F1F0-ATPase (Bos taurus, UniProt P13621); assay: Inhibition of F1F0-ATPase activity in synthesizing ATP; type: biochemical; conditions: inhibition of ATP synthesis; read-out: ATP Syn IC50
# T1 construct: from tissue
# Protocol: as §1
IC50 (F1F0-ATPase),Structure (SMILES),EC50 (Ramos cells)
< 10 µM,CC(C)(C)N/C(=N/C(=O)c1ccc(C(F)(F)F)cc1)Nc1cccc(NS(=O)(=O)CC(F)(F)F)n1 [Compound A-129],< 10 µM
< 10 µM,CCS(=O)(=O)Nc1cccc(N/C(=N\C(=O)c2ccc(Cl)cc2)Nc2cc(F)cc(Cl)c2)n1 [Compound A-130],< 10 µM
< 10 µM,CCS(=O)(=O)Nc1cccc(N/C(=N\C(=O)c2ccc(Cl)cc2)NCC(C)(C)C)n1 [Compound A-131],< 10 µM
< 10 µM,CCS(=O)(=O)Nc1cccc(N/C(=N\C(=O)c2ccc(Cl)cc2)NCc2ccc(Cl)cc2F)n1 [Compound A-132],< 10 µM
< 10 µM,CC(C)(C)CN/C(=N/C(=O)c1ccc(Cl)cc1)Nc1cccc(NS(=O)(=O)c2ccccc2)n1 [Compound A-133],> 10 µM
< 10 µM,CC(C)(C)CN/C(=N/C(=O)c1ccc(Cl)cc1)Nc1cccc(NS(=O)(=O)CC(F)(F)F)n1 [Compound A-134],< 10 µM
< 10 µM,O=C(N=C(Nc1cc(F)cc(Cl)c1)Nc1cccc(NS(=O)(=O)CC(F)(F)F)n1)c1ccc(Cl)cc1 [Compound A-135],< 10 µM
< 10 µM,O=C(/N=C(/NCc1ccc(Cl)cc1F)Nc1cccc(NS(=O)(=O)CC(F)(F)F)n1)c1ccc(Cl)cc1 [Compound A-136],< 10 µM
< 10 µM,O=C(/N=C(/NCc1ccc(Cl)cc1F)Nc1cccc(NS(=O)(=O)c2ccccn2)n1)c1ccc(Cl)cc1 [Compound A-137],> 10 µM
< 10 µM,N#Cc1ccccc1S(=O)(=O)Nc1cccc(N/C(=N\C(=O)c2ccc(Cl)cc2)NCc2ccc(Cl)cc2F)n1 [Compound A-138],< 10 µM
> 10 µM,CC(C)(C)CN/C(=N/C(=O)c1ccc(Cl)cc1)Nc1cccc(NC(=O)C(C)(C)C)n1 [Compound A-139],> 10 µM
< 10 µM,CC(=O)Nc1cccc(NC(=NC(=O)c2ccc(Cl)cc2)Nc2cc(F)cc(Cl)c2)n1 [Compound A-140],> 10 µM
< 10 µM,CC(C)(C)CN/C(=N/C(=O)c1ccc(Cl)cc1)Nc1cccc(NS(=O)(=O)c2ccccc2C#N)n1 [Compound A-141],< 10 µM
< 10 µM,N#Cc1ccccc1S(=O)(=O)Nc1cccc(NC(=NC(=O)c2ccc(Cl)cc2)Nc2cc(F)cc(Cl)c2)n1 [Compound A-142],< 10 µM
< 10 µM,CC(=O)Nc1cccc(N/C(=N\C(=O)c2ccc(Cl)cc2)NCC(C)(C)C)n1 [Compound A-143],< 10 µM
< 10 µM,CC(C)(C)CN/C(=N/C(=O)c1ccc(Cl)cc1)Nc1cccc(NS(=O)(=O)c2cccnc2)n1 [Compound A-144],> 10 µM
> 10 µM,Cn1cnc(S(=O)(=O)Nc2cccc(N/C(=N\C(=O)c3ccc(Cl)cc3)NCC(C)(C)C)n2)c1 [Compound A-145],> 10 µM
< 10 µM,Cc1noc(C)c1S(=O)(=O)Nc1cccc(N/C(=N\C(=O)c2ccc(Cl)cc2)NCc2ccc(Cl)cc2F)n1 [Compound A-146],< 10 µM
< 10 µM,O=C(N=C(Nc1cc(F)cc(Cl)c1)Nc1cccc(NS(=O)(=O)c2cccnc2)n1)c1ccc(Cl)cc1 [Compound A-147],< 10 µM
< 10 µM,O=C(/N=C(/NCc1ccc(Cl)cc1F)Nc1cccc(NS(=O)(=O)c2cccnc2)n1)c1ccc(Cl)cc1 [Compound A-148],< 10 µM
< 10 µM,O=C(/N=C(/NCc1ccccc1C(F)(F)F)Nc1cccc(NS(=O)(=O)CC(F)(F)F)n1)c1ccc(F)c(F)c1 [Compound A-149],< 10 µM
< 10 µM,CCS(=O)(=O)Nc1cccc(N/C(=N\C(=O)c2ccc(F)c(F)c2)NCc2ccccc2C(F)(F)F)n1 [Compound A-150],> 10 µM
< 10 µM,N#CCS(=O)(=O)Nc1cccc(N/C(=N\C(=O)c2ccc(F)c(F)c2)NCc2ccccc2C(F)(F)F)n1 [Compound A-151],< 10 µM
